Assay results: patent US9580726B2, “Tomato plants comprising transgenic event Bs2-X5” (priority 2013, dated 2017)
Structures can show the parent of a compound that is named as a salt. Where two headings read alike, the source gives them in different places.

Experiments:
[1] = tested on: Xanthomonas bacterial isolates; type: cell-based, Xanthomonas perforans; conditions: 200 μg/ml, 3 days
Description: The bacterial isolates were also tested for sensitivity to the bactericides, streptomycin and copper using established procedures. All strains were tested for growth on media with either streptomycin sulfate (200 μg/ml) or copper sulfate (pentahydrate) 200 μg/ml (0.8 mM)) after 3 days, [38].

[2] = tested on: bacterial spot disease on tomato; conditions: cited from earlier work
[3] = Collier, zone III, Florida 47, 20 strains isolated (r19)
[4] = Collier, zone III, Grape, 18 strains isolated (r22)
[5] = Collier, zone III, Grape, 20 strains isolated (r21)
[6] = Collier, zone III, Large Fruit, 19 strains isolated (r23)
[7] = Collier, zone III, Roma, 20 strains isolated (r20)
[8] = Decatur, GA, zone V, Large Fruit, 19 strains isolated (r39)
[9] = Decatur, GA, zone V, Large Fruit, 20 strains isolated (r41)
[10] = Decatur, GA, zone V, Large Fruit, 20 strains isolated (r43)
[11] = Gadsden, zone V, Large Fruit, 19 strains isolated (r37)
[12] = Gadsden, zone V, Large Fruit, 20 strains isolated (r35)
[13] = Manatee, zone IV, Large Fruit, 20 strains isolated (r25)
[14] = Manatee, zone IV, Large Fruit, 20 strains isolated (r27)
[15] = Manatee, zone IV, Large Fruit, 20 strains isolated (r29)
[16] = Manatee, zone IV, Large Fruit, 20 strains isolated (r31)
[17] = Manatee, zone IV, Large Fruit, 20 strains isolated (r33)
[18] = Miami Dade, zone I, Large Fruit, 13 strains isolated (r13)
[19] = Miami Dade, zone I, Large Fruit, 15 strains isolated (r9)
[20] = Miami Dade, zone I, Large Fruit, 20 strains isolated (r11)
[21] = Miami Dade, zone I, Plum, 20 strains isolated (r15)
[22] = Palm Beach, zone II, Heirloom varieties, 14 strains isolated (r17)
[23] = Totals, 377 strains isolated (r45)

Which results are given for `O.O.O.O.O.O=S(=O)([O-])[O-].[Cu+2]` [Cu, copper sulfate (pentahydrate)]?
Bactericide Resistance: number of resistant strains [1, 3]: 20; Bactericide Resistance: number of resistant strains [1, 4]: 14; Bactericide Resistance: number of resistant strains [1, 5]: 20; Bactericide Resistance: number of resistant strains [1, 6]: 19; Bactericide Resistance: number of resistant strains [1, 7]: 20; Bactericide Resistance: number of resistant strains [1, 8]: 19; Bactericide Resistance: number of resistant strains [1, 9]: 20; Bactericide Resistance: number of resistant strains [1, 10]: 20; Bactericide Resistance: number of resistant strains [1, 11]: 19; Bactericide Resistance: number of resistant strains [1, 12]: 20; Bactericide Resistance: number of resistant strains [1, 13]: 20; Bactericide Resistance: number of resistant strains [1, 14]: 20; Bactericide Resistance: number of resistant strains [1, 15]: 20; Bactericide Resistance: number of resistant strains [1, 16]: 20; Bactericide Resistance: number of resistant strains [1, 17]: 20; Bactericide Resistance: number of resistant strains [1, 18]: 13; Bactericide Resistance: number of resistant strains [1, 19]: 15; Bactericide Resistance: number of resistant strains [1, 20]: 20; Bactericide Resistance: number of resistant strains [1, 21]: 20; Bactericide Resistance: number of resistant strains [1, 22]: 14; Bactericide Resistance: number of resistant strains [1, 23]: 377; Bactericide Resistance: number of resistant strains ([1]; Totals, 377 strains isolated (r45), listed as copper): all current field strains were found to be resistant

Which “Significant difference between treatment and untreated control: Foliar Rating” value ([2]; 2008, TN, Ref [3]) does the source give for `[Cu+2].[OH-].[OH-]` [Copper hydroxide] here?
Its value is “No”.

What about the “Significant difference between treatment and untreated control: Marketable Yield” value ([2]; 2008, TN, Ref [3]) of the same compound?
Its value is “No”.

And the “Significant difference between treatment and untreated control: AUDPC” value ([2]; 2009, OH, Ref [4])?
The value was “No”.

What about the “Significant difference between treatment and untreated control: Marketable Yield” value ([2]; 2009, OH, Ref [4]) of the same compound?
Its value is “No”.

And the “Significant difference between treatment and untreated control: Foliar Rating” value ([2]; 2009, OH, Ref [4], foliar symptoms lower on copper treated plots, fruit symptoms not)?
The value was “Yes^f”.

What about the “Significant difference between treatment and untreated control: AUDPC” value ([2]; 2010, FL, Ref [6]) of the same compound?
Its value is “Yes^h”.

What about the “Significant difference between treatment and untreated control: Foliar Rating” value ([2]; 2010, FL, Ref [6]) of the same compound?
The value was “No^h”.

What about the “Significant difference between treatment and untreated control: Marketable Yield” value ([2]; 2010, FL, Ref [6]) of the same compound?
The value was “No”.

For `[H]/N=C(/N)N[C@H]1[C@H](O)[C@@H](O)[C@H](O[C@@H]2O[C@@H](C)[C@](O)(C=O)[C@H]2O[C@@H]2O[C@@H](CO)[C@H](O)[C@@H](O)[C@@H]2NC)[C@@H](N/C(N)=N\[H])[C@@H]1O` [St, streptomycin sulfate], which “Bactericide Resistance: number of resistant strains” value (“Bactericide Resistance: number” for short) [1, 3] is on record?
The value was 0.

And the “Bactericide Resistance: number” value [1, 4]?
The value was 0.

What about the “Bactericide Resistance: number” value [1, 5] of the same compound?
Its value is 0.

What about the “Bactericide Resistance: number” value [1, 6] of the same compound?
The value was 0.

And the “Bactericide Resistance: number” value [1, 7]?
Its value is 0.

What about the “Bactericide Resistance: number” value [1, 8] of the same compound?
The value was 0.

And the “Bactericide Resistance: number” value [1, 9]?
The value was 0.

What about the “Bactericide Resistance: number” value [1, 10] of the same compound?
Its value is 0.

What about the “Bactericide Resistance: number” value [1, 11] of the same compound?
Its value is 0.

What about the “Bactericide Resistance: number” value [1, 12] of the same compound?
Its value is 0.

What about the “Bactericide Resistance: number” value [1, 13] of the same compound?
Its value is 0.

What about the “Bactericide Resistance: number” value [1, 14] of the same compound?
Its value is 0.

What about the “Bactericide Resistance: number” value [1, 15] of the same compound?
The value was 0.

And the “Bactericide Resistance: number” value [1, 16]?
Its value is 1.

What about the “Bactericide Resistance: number” value [1, 17] of the same compound?
The value was 0.

And the “Bactericide Resistance: number” value [1, 18]?
Its value is 0.

And the “Bactericide Resistance: number” value [1, 19]?
The value was 0.

And the “Bactericide Resistance: number” value [1, 20]?
The value was 19.

And the “Bactericide Resistance: number” value [1, 21]?
The value was 0.

What about the “Bactericide Resistance: number” value [1, 22] of the same compound?
The value was 0.

And the “Bactericide Resistance: number” value [1, 23]?
The value was 20.

What about the “Bactericide Resistance: number” value ([1]; Totals, 377 strains isolated (r45), listed as streptomycin) of the same compound?
The value was “streptomycin resistant strains were found in two of our survey collection areas”.
